For orientation: EC50 means the concentration giving half of the maximal effect. What is called IC50 is the point on the concentration scale where inhibition reaches its midpoint.

For 23 compounds, EC50 and IC50 results are on record in patent US10336762B2 (priority 2017, dated 2019).

One test concerns TNFα. The experiment in a line: cells. As to conditions: Homo sapiens, Monocyte, read-out: EC50 TNF. In kind it is cell-based, human.
In another test the target is IRAK4 enzyme (Homo sapiens (Human), UniProt Q9NWZ3). The experiment in a line: biochemical. The class given is biochemical.
[1] abbreviates: LPS-stimulated human monocytes, TNFα content.
[2] abbreviates: IRAK4 enzyme, TR-FRET, 500 μM ATP.

Like-named read-outs stand apart in the source and are kept apart here.

IRAK4 enzyme, sequence (Q9NWZ3 whole entry): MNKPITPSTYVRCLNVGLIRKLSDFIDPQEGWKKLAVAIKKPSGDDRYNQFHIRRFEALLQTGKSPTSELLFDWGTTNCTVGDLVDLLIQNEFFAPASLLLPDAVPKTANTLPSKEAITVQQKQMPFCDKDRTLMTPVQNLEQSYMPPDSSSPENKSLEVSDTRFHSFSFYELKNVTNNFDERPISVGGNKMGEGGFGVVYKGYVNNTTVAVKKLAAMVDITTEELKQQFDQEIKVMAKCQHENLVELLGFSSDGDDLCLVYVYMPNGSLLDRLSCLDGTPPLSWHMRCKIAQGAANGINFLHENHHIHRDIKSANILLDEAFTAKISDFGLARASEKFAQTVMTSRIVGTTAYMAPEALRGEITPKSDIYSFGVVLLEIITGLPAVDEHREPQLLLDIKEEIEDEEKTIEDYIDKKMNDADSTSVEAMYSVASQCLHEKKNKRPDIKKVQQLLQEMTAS
Method for TNFα: IRAK4 Monocyte TNFα Cell Based Assay Procedure:
The cell suspension was then plated at a density of 5,000 cells/well onto black 384 well Greiner clear bottom plates. Plates were pre-spotted with test compounds and serially diluted in DMSO where 200 nL/well were delivered using the Echo 550 acoustic liquid dispenser (Labcyte®) for a final DMSO concentration of 0.5%. Plated cells were treated with compound for 1 hour at 37° C. Cells were then stimulated with 50 pg/ml of LPS (Sigma) excluding outside columns of plate used for unstimulated cell control wells. Cells were incubated for an additional 4 hours at 37° C. Cells were then spun out of the media and 5 μl of sample were taken and analyzed for total TNFα content using the TR-FRET Human TNFα detection system (CisBio). This system utilizes two labeled antibodies (cryptate and XL665) that bind to two different epitopes of the TNFα molecule and produce FRET signal proportional to the concentration of TNFα in the sample. Detection antibodies are mixed 50:50 and 5 μL were dispensed into each well. Plates were covered with clear seals and incubated at room temp overnight. […] Percent of control was calculated as follows: % Control=100×(RatioSample−Ratio0% stimulation)/(Ratio100% Stimulation−Ratio0% Stimulation) where unstimulated cells (0% stimulation) were the negative control and stimulated cells (100% stimulation) were used as the positive control.

Consider `COC(=O)NC12CCC(Nc3cc(-c4ccc5cc(C#N)cnn45)ncc3C(=O)NC3CCC(NC(=O)N4CCOCC4)CC3)(CC1)CC2` (stereo not shown) [Example 270, methyl (4-((2-(3-cyano-pyrrolo[1,2-b]pyridazin-7-yl)-5-((4-(morpholine-4-carboxamido)cyclohexyl)carbamoyl)pyridin-4-yl)amino)bicyclo[2.2.2]octan-1-yl)carbamate], for which, in the test on TNFα (setting [1]), the half-maximal effective concentration (EC50) turned out to be 49 nM. Further, the IC50 against IRAK4 enzyme (setting [2]) was found to be 1 nM.

Consider `COC(=O)NC12CCC(Nc3cc(-c4ccc5cc(C#N)cnn45)ncc3C(=O)NC3CCC(NC(=O)C4CC4)CC3)(CC1)CC2` (stereo not shown) [Example 271, methyl (4-((2-(3-cyano-pyrrolo[1,2-b]pyridazin-7-yl)-5-((4-(cyclopropane-carboxamido)cyclohexyl)carbamoyl)pyridin-4-yl)amino)bicyclo[2.2.2]octan-1-yl)carbamate], for which the EC50 in the test with TNFα (setting [1]) was 38 nM. This compound also gave an IC50 on IRAK4 enzyme (setting [2]) of 1 nM.

For `CN(C)C(=O)NC12CCC(Nc3cc(-c4ccc5cc(C#N)cnn45)ncc3C(=O)NC[C@@H](F)C(C)(C)O)(CC1)CC2` [Example 272, (R)-6-(3-cyanopyrrolo[1,2-b]pyridazin-7-yl)-4-((4-(3,3-dimethylureido)bicyclo[2.2.2]octan-1-yl)amino)-N-(2-fluoro-3-hydroxy-3-methylbutyl)nicotinamide], in the test with TNFα (setting [1]), the EC50 came out at 23 nM. This compound returned an IC50 at IRAK4 enzyme (setting [2]) of 1 nM.

Take `CC(C)(O)C1CCC(Nc2cc(-c3ccc4cc(C#N)cnn34)ncc2C(=O)NC[C@@H](F)C(C)(C)O)CC1` (stereo partly drawn) [Example 273, 6-(3-cyanopyrrolo[1,2-b]pyridazin-7-yl)-N-((R)-2-fluoro-3-hydroxy-3-methylbutyl)-4-(((1r,4R)-4-(2-hydroxypropan-2-yl)cyclohexyl)amino) nicotinamide]: in the test with TNFα (setting [1]), the EC50 is 22 nM. This compound also registered an IC50 at IRAK4 enzyme (setting [2]) of 2 nM.

For the compound `CNC(=O)c1cnc(-c2ccc3cc(C#N)cnn23)cc1N[C@H]1CC[C@H](NC(=O)OC)CC1` [Example 274, methyl ((1r,4r)-4-((2-(3-cyanopyrrolo[1,2-b]pyridazin-7-yl)-5-(methylcarbamoyl)pyridin-4-yl)amino)cyclohexyl)carbamate], the EC50 in the test on TNFα (setting [1]) was determined as 144 nM. This compound also displayed an IC50 against IRAK4 enzyme (setting [2]) of 1 nM.

As to `CNC(=O)c1cnc(-c2ccc3cc(C#N)cnn23)cc1NC1CCC(NC(=O)C(F)(F)F)CC1` (stereo not shown) [Example 275, 6-(3-cyanopyrrolo[1,2-b]pyridazin-7-yl)-N-methyl-4-(((1r,4r)-4-(2,2,2-trifluoroacetamido)cyclohexyl)amino) nicotinamide], the half-maximal effective concentration (EC50) in the test on TNFα (setting [1]) was 154 nM. Moreover, the half-maximal inhibitory concentration (IC50) against IRAK4 enzyme (setting [2]) amounted to 3 nM.

With `CNC(=O)c1cnc(-c2ccc3cc(C#N)cnn23)cc1N[C@H]1CC[C@H](NC(C)=O)CC1` [Example 276, 4-(((1r,4r)-4-acetamidocyclohexyl)amino)-6-(3-cyano-pyrrolo[1,2-b]pyridazin-7-yl)-N-methylnicotinamide], the EC50 with TNFα (setting [1]) worked out at 146 nM. At IRAK4 enzyme (setting [2]), the IC50 worked out at 3 nM.

As for `CC(=O)NC12CC(Nc3cc(-c4ccc5cc(C#N)cnn45)ncc3C(=O)NCC(F)(F)F)(C1)C2` [Example 277, 4-((3-acetamido-bicyclo[1.1.1]pentan-1-yl)amino)-6-(3-cyano-pyrrolo[1,2-b]pyridazin-7-yl)-N-(2,2,2-trifluoroethyl) nicotinamide], the EC50 with TNFα (setting [1]) turned out to be 383 nM. The IC50 against IRAK4 enzyme (setting [2]) is 5 nM.

For the compound `CC(=O)NC12CC(Nc3cc(-c4ccc5cc(C#N)cnn45)ncc3C(=O)NCC(F)F)(C1)C2` [Example 278, 4-((3-acetamido-bicyclo[1.1.1]pentan-1-yl)amino)-6-(3-cyano-pyrrolo[1,2-b]pyridazin-7-yl)-N-(2,2-difluoroethyl) nicotinamide], in the test on TNFα (setting [1]), the EC50 came out at 165 nM. For the same compound, on IRAK4 enzyme (setting [2]), half-maximal inhibition (IC50) required 3 nM.

`CC(C)(O)[C@H](F)CNC(=O)c1cnc(-c2ccc3cc(C#N)cnn23)cc1NC12CCC(NC(=O)OC3COC3)(CC1)CC2` [Example 279, (R)-oxetan-3-yl (4-((2-(3-cyanopyrrolo[1,2-b]pyridazin-7-yl)-5-((2-fluoro-3-hydroxy-3-methylbutyl)carbamoyl)pyridin-4-yl)amino)bicyclo[2.2.2]octan-1-yl)carbamate]: the EC50 in the test on TNFα (setting [1]) came to 29 nM. For the same compound, the IC50 on IRAK4 enzyme (setting [2]) came out at 2 nM.

For the compound `CC(C)(O)[C@H](F)CNC(=O)c1cnc(-c2ccc3cc(C#N)cnn23)cc1N[C@H]1CC[C@H](NC(=O)OC2COC2)CC1` [Example 280, oxetan-3-yl ((1R,4r)-4-((2-(3-cyanopyrrolo[1,2-b]pyridazin-7-yl)-5-(((R)-2-fluoro-3-hydroxy-3-methylbutyl)carbamoyl)pyridin-4-yl)amino)cyclo-hexyl)carbamate], the EC50 with TNFα (setting [1]) was determined as 55 nM. The compound also returned an IC50 against IRAK4 enzyme (setting [2]) of 1 nM.

As for `CC(C)(O)[C@H](F)CNC(=O)c1cnc(-c2ccc3cc(C#N)cnn23)cc1NC12CCC(NC(=O)C3CC3)(CC1)CC2` [Example 281, (R)-6-(3-cyanopyrrolo[1,2-b]pyridazin-7-yl)-4-((4-(cyclopropanecarboxamido)bicyclo[2.2.2]octan-1-yl)amino)-N-(2-fluoro-3-hydroxy-3-methylbutyl) nicotinamide], the EC50 in the test with TNFα (setting [1]) is 37 nM. This compound also returned an IC50 against IRAK4 enzyme (setting [2]) of 1 nM.

As for `CC1(C(=O)N[C@H]2CC[C@H](Nc3cc(-c4ccc5cc(C#N)cnn45)ncc3C(=O)NC[C@@H](F)C(C)(C)O)CC2)COC1` [Example 282, 6-(3-cyanopyrrolo[1,2-b]pyridazin-7-yl)-N-((R)-2-fluoro-3-hydroxy-3-methylbutyl)-4-(((1r,4R)-4-(3-methyloxetane-3-carboxamido)cyclohexyl)amino)nicotinamide], the EC50 in the test with TNFα was 364 nM. Moreover, the IC50 against IRAK4 enzyme is 2 nM.

For the compound `[2H]C([2H])([2H])OC(=O)NC12CCC(Nc3cc(-c4ccc5cc(C#N)cnn45)ncc3C(=O)NC[C@@H](F)C(C)(C)O)(CC1)CC2` [Example 283, methyl-d3 (R)-(4-((2-(3-cyanopyrrolo[1,2-b]pyridazin-7-yl)-5-((2-fluoro-3-hydroxy-3-methylbutyl)carbamoyl)pyridin-4-yl)amino)bicyclo[2.2.2]octan-1-yl)carbamate], the EC50 in the test on TNFα (setting [1]) stood at 14 nM. For the same compound, it took 1 nM to reach half-maximal inhibition against IRAK4 enzyme (setting [2]) (IC50).

For the compound `COCC(=O)N[C@H]1CC[C@H](Nc2cc(-c3ccc4cc(C#N)cnn34)ncc2C(=O)NC[C@@H](F)C(C)(C)O)CC1` [Example 284, 6-(3-cyanopyrrolo[1,2-b]pyridazin-7-yl)-N-((R)-2-fluoro-3-hydroxy-3-methylbutyl)-4-(((1r,4R)-4-(2-methoxyacetamido)cyclohexyl)amino) nicotinamide], the concentration giving a half-maximal response (EC50) with TNFα (setting [1]) was 88 nM. On IRAK4 enzyme (setting [2]), this compound displayed an IC50 of 1 nM.

As for `CN(C)S(=O)(=O)N[C@H]1CC[C@H](Nc2cc(-c3ccc4cc(C#N)cnn34)ncc2C(=O)NC[C@@H](F)C(C)(C)O)CC1` [Example 285, 6-(3-cyanopyrrolo[1,2-b]pyridazin-7-yl)-4-(((1r,4R)-4-((N,N-dimethylsulfamoyl)amino)cyclohexyl)amino)-N-((R)-2-fluoro-3-hydroxy-3-methylbutyl)nicotinamide], in the test on TNFα (setting [1]), the concentration for a half-maximal effect (EC50) was found to be 167 nM. Also, the IC50 against IRAK4 enzyme (setting [2]) turned out to be 2 nM.

Turning to `CN(C)C(=O)N[C@H]1CC[C@H](Nc2cc(-c3ccc4cc(C#N)cnn34)ncc2C(=O)NC[C@@H](F)C(C)(C)O)CC1` [Example 286, 6-(3-cyanopyrrolo[1,2-b]pyridazin-7-yl)-4-(((1r,4R)-4-(3,3-dimethylureido)cyclohexyl)amino)-N-((R)-2-fluoro-3-hydroxy-3-methylbutyl)nicotinamide], in the test on TNFα (setting [1]), the EC50 was determined as 41 nM. For the same compound, 1 nM corresponded to half-maximal inhibition on IRAK4 enzyme (setting [2]) (IC50).

Take `CC(C)(O)[C@H](F)CNC(=O)c1cnc(-c2ccc3cc(C#N)cnn23)cc1N[C@H]1CC[C@H](NC(=O)OCC2CC2)CC1` [Example 287, cyclopropylmethyl ((1R,4r)-4-((2-(3-cyanopyrrolo[1,2-b]pyridazin-7-yl)-5-(((R)-2-fluoro-3-hydroxy-3-methylbutyl)carbamoyl)pyridin-4-yl)amino)cyclohexyl)carbamate]: the 50% effective concentration (EC50) in the test with TNFα (setting [1]) stood at 147 nM. Also, the IC50 against IRAK4 enzyme (setting [2]) came out at 1 nM.

As for `CC(C)(O)[C@H](F)CNC(=O)c1cnc(-c2ccc3cc(C#N)cnn23)cc1N[C@H]1CC[C@H](NC(=O)OC2CCC2)CC1` [Example 288, cyclobutyl ((1R,4r)-4-((2-(3-cyanopyrrolo[1,2-b]pyridazin-7-yl)-5-(((R)-2-fluoro-3-hydroxy-3-methylbutyl)carbamoyl)pyridin-4-yl)amino)cyclohexyl)carbamate], in the test on TNFα (setting [1]), the EC50 was 54 nM. This compound showed an IC50 at IRAK4 enzyme (setting [2]) of 1 nM.

In the case of `CC(C)(O)[C@H](F)CNC(=O)c1cnc(-c2ccc3cc(C#N)cnn23)cc1N[C@H]1CC[C@H](NCC(F)(F)F)CC1` [Example 289, 6-(3-cyanopyrrolo[1,2-b]pyridazin-7-yl)-N-((R)-2-fluoro-3-hydroxy-3-methylbutyl)-4-(((1r,4R)-4-((2,2,2-trifluoroethyl)amino)cyclohexyl)amino)nicotinamide], the EC50 in the test on TNFα came out at 66 nM. The half-inhibitory concentration (IC50) against IRAK4 enzyme was found to be 1 nM.

For `CC(C)COC(=O)N[C@H]1CC[C@H](Nc2cc(-c3ccc4cc(C#N)cnn34)ncc2C(=O)NC[C@@H](F)C(C)(C)O)CC1` [Example 290, isobutyl ((1R,4r)-4-((2-(3-cyanopyrrolo[1,2-b]pyridazin-7-yl)-5-(((R)-2-fluoro-3-hydroxy-3-methylbutyl)carbamoyl)pyridin-4-yl)amino)cyclohexyl)carbamate], the EC50 in the test with TNFα (setting [1]) was found to be 121 nM. For the same compound, on IRAK4 enzyme (setting [2]), the IC50 was determined as 1 nM.

Consider `CC(C)OC(=O)N[C@H]1CC[C@H](Nc2cc(-c3ccc4cc(C#N)cnn34)ncc2C(=O)NC[C@@H](F)C(C)(C)O)CC1` [Example 291, isopropyl ((1R,4r)-4-((2-(3-cyanopyrrolo[1,2-b]pyridazin-7-yl)-5-(((R)-2-fluoro-3-hydroxy-3-methylbutyl)carbamoyl)pyridin-4-yl)amino)cyclohexyl)carbamate], for which the 50% effective concentration (EC50) in the test on TNFα (setting [1]) amounted to 90 nM. This compound also displayed an IC50 on IRAK4 enzyme (setting [2]) of 2 nM.

With `CCOC(=O)N[C@H]1CC[C@H](Nc2cc(-c3ccc4cc(C#N)cnn34)ncc2C(=O)NC[C@@H](F)C(C)(C)O)CC1` [Example 292, ethyl ((1R,4r)-4-((2-(3-cyanopyrrolo[1,2-b]pyridazin-7-yl)-5-(((R)-2-fluoro-3-hydroxy-3-methylbutyl)carbamoyl)pyridin-4-yl)amino)cyclohexyl)carbamate], the EC50 in the test with TNFα (setting [1]) stood at 37 nM. On IRAK4 enzyme (setting [2]), the IC50 is 1 nM.
